Source: patent US20150335678A1, “METHOD OF ACTIVATING STEM CELLS IN AN ANIMAL AND THE USE OF CHLORINE DIOXIDE FOR PREPARING MEDICINES FOR ACTIVATING STEM CELLS IN AN ANIMAL” (priority 2012, published 2015)
Marks after values point to notes of the source that are not given here.

Assays:
[1] = test system: cerebral ischemia/reperfusion injury model rats; experiment: Neural function score in cerebral ischemia/reperfusion injury model (Example 3); type: in vivo, Sprague-Dawley rats; conditions: for neural function score (median): n=15, scale 0 normal to 5
Description: Male Sprague-Dawley rats with the age of 12 weeks and weight of 250^˜280 g were used in the experiment after acclimating for a week.
A middle cerebral artery occlusion model was first established in compliance with the method of Longa E Z et al. (Longa E Z, et al. Reversible middle cerebral artery occlusion without craniectomy in rats. Stroke 20:84-91, 1989). More specifically, 0.36 g/kg of 10% chloral hydrate was administered intraperitoneally to rats which had been fasted for 12 hours (although given free access to water) to anesthetize the rats. Next, a midline incision was made in the neck to expose the right common carotid artery. Then, the internal carotid artery and external carotid artery were separated, the posterior carotid artery, which is a branch of the external carotid artery, and the thyroidea arteria were coagulated and severed, the external carotid artery was ligated at the branch of the lingual artery and maxillary artery, a small puncture was formed in the external carotid artery, 4-0 Nylon suture was passed through the common carotid artery from the puncture, and gradually inserted into the internal carotid artery until there was resistance. The length of the Nylon suture was about 18^˜20 mm from the branch of the common carotid artery. As a result of occluding the middle cerebral artery with Nylon suture, an ischemic state was applied for 2 hours to create a middle cerebral artery occlusion model.
A cerebral ischemia/reperfusion injury model was established by removing the Nylon suture from the middle cerebral artery of the occlusion model and following reperfusion of blood.
The first solution was a mixed solution made of sodium chlorite with the concentration of 7.47% and sodium chloride with the concentration of 1.59% with deionized water; the second solution was made of citric acid with the concentration of 16.7% with deionized water. Same volume of solutions were taken out from different vessels with different volumes and mixed up. Allow the solution to mix for 3-5 minutes and dilute it five times with normal saline, and then filter it with 0.22 μm filter membrane of double-deck. The solution was immediately put into injector. The solution was prepared once being used.
Treatment group (120 rats): A cerebral ischemia/reperfusion injury model was established for the rats already. To administer chlorine dioxide solution everytime that prepared from procedure (3) through carotid artery after the second day the model has established, once a day for total ten days.
Neural function scores were evaluated once a day after the ischemia/reperfusion injury model established in the 15 rats per group. The scores of neural function disorders were evaluated using the following criteria in compliance with the method of Longa E Z (Longa E Z, et al. Reversible middle cerebral artery occlusion without craniectomy in rats. Stroke 20:84-91, 1989). The results were shown as median.
1: Contralateral limb bending on infarction focus
2: Contralateral limb on infarction focus becomes asthenic state when tail is pulled backward
3: Turning toward opposite side of infarction focus when tail is pulled
4: Spontaneous turning towards opposite side of infarction focus
5: Loss of spontaneous movement

[2] = test system: gastric ulcer; experiment: hp-positive gastric ulcer patients: symptoms and ulcer healing by gastroscopy (Example 11); type: in vivo, human
Description: The subjects consisted of 90 gastric ulcer patients (50 male and 40 female) of hp-positive aged from 33 to 75 years old (average age: 41 years old). The subjects were randomly assigned to treatment group and control group with 30 patients in treatment group and 30 in control group 1 and 30 in control group 2 respectively.
Allow the solution to mix for 3-5 minutes. The capsule that containing activating agent of stem cells was made by injecting the mixed solution into the soft capsule of number 0.
The capsule that containing activating agent of stem cells was administered to the patients in treatment group three times a day and a pill each time; 30 minutes before meals, patients in control group 1 took orally 15 mg colloidal bismuth and 100 mg pectin tinidazole for three times a day. And 20 mg Omeprazole two times a day; patients in control group 2 took orally […] amoxicillin and 500 mg clindamycin three times a day and 20 mg esomeprazole twice a day before meals. Both groups were administered for a consecutive week. To observe the improvement of the clinical symptoms of the three cases two weeks after administration, such as stomachache, nausea and sour regurgitation. Gastroscopy and urease test of gastric antral mucosa were conducted after 30 days to observe ulcer healing and eradication of hp.
Criteria for measuring the effects: the changes of conditions before and after treatment and the time the symptoms disappear were recorded precisely. Diagnostic criteria are the followings: 1) complete healing: the symptoms disappear, such as ache, heartburn, nausea, sour regurgitation, abdominal distention; cure of ulceration under a gastroscope and the inflammation is gone; H pylori is negative. 2) Almost healing: subjective symptom disappear, and more than 90% ulceration are healed and the inflammation around is gone. 3) Effective: more than half of the ulcer surface shrink or more than half of ulceration reduced; 4) Ineffective: less than half of the ulceration are healed or haven't been changed, or even the ulcer surface or ulceration increase. To conduct rapid urease test by taking one sample of gastric mucosa at antrum of stomach and gastric body respectively, if the results are negative, it means Hp negative conversing.

[O][Cl+][O-] [chlorine dioxide solution, chlorine dioxide]
neural function score (median) ([1]; Day 1, model group 3, NaClO2 7.47% + citric acid 16.7% 1:1 diluted five times, carotid artery once a day for ten days after the second day): 3 | neural function score (median) ([1]; Day 2, model group 3, diluted solution via carotid artery once a day for ten days after the second day): 3 | neural function score (median) ([1]; Day 3, model group 3, diluted solution via carotid artery once a day for ten days after the second day): 2 | neural function score (median) ([1]; Day 4, model group 2, diluted solution via carotid artery once a day for ten days after the second day): 2 | neural function score (median) ([1]; Day 5, model group 2, diluted solution via carotid artery once a day for ten days after the second day): 1 | neural function score (median) ([1]; Day 6, model group 2, diluted solution via carotid artery once a day for ten days after the second day): 1 | neural function score (median) ([1]; Day 7, model group 2, diluted solution via carotid artery once a day for ten days after the second day): 1 | neural function score (median) ([1]; Day 8, model group 2, diluted solution via carotid artery once a day for ten days after the second day): 0 | neural function score (median) ([1]; Day 9, model group 1, diluted solution via carotid artery once a day for ten days after the second day): 0 | neural function score (median) ([1]; Day 10, model group 1, diluted solution via carotid artery once a day for ten days after the second day): 0 | neural function score (median) ([1]; Day 11, model group 1, diluted solution via carotid artery once a day for ten days after the second day): 0 | neural function score (median) ([1]; Day 12, model group 1, diluted solution via carotid artery once a day for ten days after the second day): 0 | neural function score (median) ([1]; Day 13, model group 1, diluted solution via carotid artery once a day for ten days after the second day): 0 | neural function score (median) ([1]; Day 14, model group 1, diluted solution via carotid artery once a day for ten days after the second day): 0 | neural function score (median) ([1]; Day 15, model group 1, diluted solution via carotid artery once a day for ten days after the second day): 0 | neural function score (median) ([1]; Day 16, model group 1, diluted solution via carotid artery once a day for ten days after the second day): 0 | neural function score (median) ([1]; Day 17, model group 1, diluted solution via carotid artery once a day for ten days after the second day): 0 | neural function score (median) ([1]; Day 18, model group 1, diluted solution via carotid artery once a day for ten days after the second day): 0 | neural function score (median) ([1]; Day 19, model group 1, diluted solution via carotid artery once a day for ten days after the second day): 0 | neural function score (median) ([1]; Day 20, model group 1, diluted solution via carotid artery once a day for ten days after the second day): 0 | neural function score (median) ([1]; Day 21, model group 1, diluted solution via carotid artery once a day for ten days after the second day): 0** | onset of recovery of neural function, treatment group vs model group ([1]; significant particularly on day 7, 8, 9 and 16 after operation): earlier than that in the model group | Symptoms disappear after a week (No.) ([2]; 30 hp-positive gastric ulcer patients per group, administered for a consecutive week, test capsule NaClO2 20%/NaCl 5% + citric acid 30% 1:1, one pill three times a day): 30 | Effective after 30 d (%) ([2]; 30 patients per group): 3.3% | Healing after 30 d (%) ([2]; 30 patients per group): 3.3% | Symptoms disappear after a week (%) ([2]; 30 patients per group, administered for a consecutive week): 100% | Healing after 30 d (No.) ([2]; 30 patients per group, almost healing: more than 90% ulceration healed): 1 | Complete healing after 30 d (%) ([2]; 30 patients per group, gastroscopy): 93.3% | Complete healing after 30 d (No.) ([2]; 30 patients per group, gastroscopy, administered for a consecutive week): 28 | Effective after 30 d (No.) ([2]; 30 patients per group, more than half of ulcer surface shrink): 1
